This experiment deals with PKBα (Homo sapiens, UniProt P31749). The experiment is described as follows: PKB kinase assay (P33-labeled ATP, peptide substrate, filter plate). Type of experiment: biochemical. Particulars: PKBα enzyme (full length or kinase domain with pleckstrin domain deleted). The source says: The kinase assay for evaluating PKB activity comprises active PKB enzymes, a PKB specific substrate, and P^33-labeled ATP. […] The phosphorylated substrate was captured by a phosphocellulose membrane filter plate (MLLIPORE) and measured by a Wallac Microbeta liquid scintillation counter (Perkin Elmer).
PKBα, sequence (P31749 118-480 limits assumed): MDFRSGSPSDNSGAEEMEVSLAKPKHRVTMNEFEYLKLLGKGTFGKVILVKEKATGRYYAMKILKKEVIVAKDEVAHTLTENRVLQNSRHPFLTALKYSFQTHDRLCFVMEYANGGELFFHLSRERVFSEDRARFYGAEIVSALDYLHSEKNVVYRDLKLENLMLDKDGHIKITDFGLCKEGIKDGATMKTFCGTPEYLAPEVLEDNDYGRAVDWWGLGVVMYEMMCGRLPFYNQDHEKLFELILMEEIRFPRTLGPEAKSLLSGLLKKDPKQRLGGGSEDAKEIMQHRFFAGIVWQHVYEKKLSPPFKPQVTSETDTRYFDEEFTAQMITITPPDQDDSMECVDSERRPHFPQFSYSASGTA
By IC50 is commonly meant the concentration that inhibits the measured activity by half. Low values mean greater potency in that assay, high ones weaker potency in that assay. `Cn1c(=O)[nH]c2ccc(-c3sc(NC[C@@H](N)Cc4ccc(C(F)(F)F)cc4)nc3-c3ccccc3F)cc21` [Example 249, 6-(2-((S)-2-amino-3-(4-(trifluoromethyl)phenyl)propylamino)-4-(2-fluorophenyl)thiazol-5-yl)-1-methyl-1H-benzo[d]imidazol-2(3H)-one] had an IC50 of 1 to 10 µM.
The figure for `Cn1c(=O)[nH]c2ccc(-c3sc(NC[C@@H](N)Cc4ccc(F)cc4)nc3-c3ccccc3F)cc21` [Example 250, 6-(2-((S)-2-amino-3-(4-fluorophenyl)propylamino)-4-(2-fluorophenyl)thiazol-5-yl)-1-methyl-1H-benzo[d]imidazol-2(3H)-one] is 1 to 10 µM; for `N[C@H](CNc1ncc(-c2ccc3c(c2)OCO3)s1)Cc1c[nH]c2ccccc12` [Example 251, N—((S)-2-amino-3-(1H-indol-3-yl)propyl)-5-(benzo[d][1,3]dioxol-5-yl)thiazol-2-amine] it is 1 to 10 µM.
The compound `N[C@H](CNc1ncc(-c2ccc3cn[nH]c(=O)c3c2)s1)Cc1ccc(C(F)(F)F)cc1` [Example 252, 7-(2-((S)-2-amino-3-(4-(trifluoromethyl)phenyl)propylamino)thiazol-5-yl)phthalazin-1 (211)-one] gave an IC50 of 1 to 10 µM.
The figure for `N[C@H](CNc1ncc(-c2ccc3cncnc3c2)s1)Cc1ccc(C(F)(F)F)cc1` [Example 253, N—((S)-2-Amino-3-(4-(trifluoromethyl)phenyl)propyl)-5-(quinazolin-7-yl)thiazol-2-amine] is less than 0.05 µM.
The figure for `N[C@H](CNc1ncc(-c2ccc3nnccc3c2)s1)Cc1ccc(C(F)(F)F)cc1` [Example 254, N—((S)-2-amino-3-(4-(trifluoromethyl)phenyl)propyl)-5-(cinnolin-6-yl)thiazol-2-amine] is 0.05 to 1 µM; for `N[C@H](CNc1nc(CCO)c(-c2ccc3cnccc3c2)s1)Cc1ccc(C(F)(F)F)cc1` [Example 255, 2-(2-((S)-2-amino-3-(4-(trifluoromethyl)phenyl)propylamino)-5-(isoquinolin-6-yl)thiazol-4-yl)ethanol] it is 0.05 to 1 µM.
